The source of these data is patent US11312705B2, “Heteroaryl[4,3-C]pyrimidine-5-amine derivative, preparation method therefor, and medical uses thereof” (Jiangsu Hengrui Medicine Co., Ltd., priority 2017, dated 2022).

Bounds are passed on as bounds.

Common to all, as to format: cell-based
The target in assay [1] is adenosine A3 receptor (A3R) (Homo sapiens (Human), UniProt P0DMS8). Nature of the assay: Inhibition of adenosine A3 receptor cAMP signaling pathway (HTRF cAMP, CHO-K1/A3R cells). To be noted: Table 2; for IC50: CHO-K1/A3R cells, forskolin 10 μM, 2Cl-IB-MECA 5 nM, cAMP HTRF. The text has this:
(§1) Test Example 1. Determination of the inhibition activity of the compounds of the present invention on the adenosine A2a receptor (A2aR) cAMP signaling pathway, the adenosine A2b receptor (A2bR) cAMP signaling pathway, the adenosine A1 receptor (A1R) cAMP signaling pathway and the adenosine A3 receptor (A3R) cAMP signaling pathway.
(§2) The inhibition activity of the compounds of the present invention on the adenosine A2a receptor cAMP signaling pathway, the adenosine A2b receptor cAMP signaling pathway, the adenosine A1 receptor cAMP signaling pathway and the adenosine A3 receptor cAMP signaling pathway was determined by the following method. The experimental method is briefly described as follows:
2.3 Adenosine A3 receptor
(§3) CHO-K1/A3R cells were cultured in DMEM/F12 medium containing 10% fetal bovine serum and 10 μg/ml puromycin. The cells were digested with the cell separation buffer during the experiment. The cells were resuspended in the balanced salt buffer containing 20 mM HEPES and 0.1% bovine serum albumin and counted, and the cell density was adjusted to 5×10^5 cells/ml. In the 384-well plate, each well was added with 12.5 μl of cell suspension, and 6.25 μl of test compound (4× concentration) formulated with the balanced salt buffer containing 20 mM HEPES, 0.1% bovine serum albumin, 54 μM rolipram and 2.7 U/ml adenosine deaminase, and the plate was incubated at room temperature for 30 minutes. Each well was then added with 6.25 μl of forskolin and 2Cl-IB-MECA (4× concentration) formulated with the balanced salt buffer containing 20 mM HEPES, 0.1% bovine serum albumin, 54 μM rolipram and 2.7 U/ml adenosine deaminase, and the plate was incubated at room temperature for 30 minutes. The final concentrations of the compounds were: 100000, 10000, 1000, 100, 10, 1, 0.1 and 0 nM. The final concentration of forskolin was 10 μM. The final concentration of 2Cl-IB-MECA was 5 nM. Intracellular cAMP concentration was detected with the cAMP dynamic 2 kit. cAMP-d2 and Anti-cAMP-Eu-Cryptate were diluted respectively with the cAMP lysis buffer at a ratio of 1:4. Each well was added with 12.5 μl of diluted cAMP-d2, followed by addition of 12.5 μl of diluted Anti-cAMP-Eu-Cryptate, and the plate was incubated at room temperature in the dark for 1 hour. The HTRF signal values were read by the PHERAstar multi-function microplate reader.
(In TR-FRET formats the signal depends on donor and acceptor labels being close together.)

Assay [2] concerns the target adenosine A1 receptor (A1R) (Homo sapiens (Human), UniProt P30542). Nature of the assay: Inhibition of adenosine A1 receptor cAMP signaling pathway (HTRF cAMP, CHO-K1/A1R cells). To be noted: Table 2; for IC50: CHO-K1/A1R cells, forskolin 10 μM, CPA 10 nM, cAMP HTRF; for IC50 ratio (A1R/A2aR): selectivity A1R over A2aR.
From the text: as §1, §2
2.2 Adenosine A1 receptor
as §3, with “CHO-K1/A1R cells were” for “CHO-K1/A3R cells were”, “serum and 1 mg/ml G418. The cells” for “serum and 10 μg/ml puromycin. The cells”, “cells were then resuspended in” for “cells were resuspended in”, “forskolin and N6-cyclopentyladenosine (4× concentration)” for “forskolin and 2Cl-IB-MECA (4× concentration)”, “concentration of CPA was 10” for “concentration of 2Cl-IB-MECA was 5”, “CPA was 10 nM. Intracellular” for “2Cl-IB-MECA was 5 nM. Intracellular”

The target of assay [3] is adenosine A2a receptor (A2aR) (Homo sapiens (Human), UniProt P29274). The assay can be described thus: Inhibition of adenosine A2a receptor cAMP signaling pathway (HTRF cAMP, CHO-K1/A2aR cells).
adenosine A2a receptor (A2aR), sequence (P29274 whole entry): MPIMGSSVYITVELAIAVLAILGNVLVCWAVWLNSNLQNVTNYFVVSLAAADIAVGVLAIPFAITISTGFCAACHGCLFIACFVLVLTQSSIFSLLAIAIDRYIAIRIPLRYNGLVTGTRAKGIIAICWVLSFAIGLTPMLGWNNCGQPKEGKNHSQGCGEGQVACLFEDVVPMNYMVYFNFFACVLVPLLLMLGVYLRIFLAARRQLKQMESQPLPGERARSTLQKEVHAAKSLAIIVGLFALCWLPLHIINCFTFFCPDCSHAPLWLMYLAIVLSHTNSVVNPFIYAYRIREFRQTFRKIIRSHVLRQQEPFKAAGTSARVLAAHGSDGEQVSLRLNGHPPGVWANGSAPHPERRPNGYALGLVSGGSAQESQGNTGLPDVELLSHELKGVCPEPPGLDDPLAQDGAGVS
From the text: as §1, §2
2.1 Adenosine A2a Receptor
CHO-K1/A2aR cells were cultured in DMEM/F12 medium containing 10% fetal bovine serum and 800 μg/ml bleomycin. The cells were digested with the cell separation buffer during the experiment. The cells were resuspended in the balanced salt buffer containing 20 mM HEPES and 0.1% bovine serum albumin and counted, and the cell density was adjusted to 10^6 cells/ml. In the 384-well plate, each well was added with 5 μl of cell suspension, and 2.5 μl of test compound (4× concentration) formulated with the balanced salt buffer containing 20 mM HEPES, 0.1% bovine serum albumin, 54 μM rolipram and 2.7 U/ml adenosine deaminase, and the plate was incubated at room temperature for 30 minutes. Each well was then added with 2.5 μl of […] (4× concentration) formulated with the balanced salt buffer containing 20 mM HEPES, 0.1% bovine serum albumin, 54 μM rolipram and 2.7 U/ml adenosine deaminase, and the plate was incubated at room temperature for 30 minutes. The final concentrations of the compounds were: 10000, 2000, 400, 80, 16, 3.2, 0.64, 0.128, 0.0256, 0.00512, and 0.001024 nM. The final concentration of […] was 20 nM. Intracellular cAMP concentration was detected with the cAMP dynamic 2 kit. cAMP-d2 and Anti-cAMP-Eu-Cryptate were diluted respectively with the cAMP lysis buffer at a ratio of 1:4. Each well was added with 5 μl of diluted cAMP-d2, followed by addition of 5 μl of diluted Anti-cAMP-Eu-Cryptate, and the plate was incubated at room temperature in the dark for 1 hour. The HTRF signal values were read by the PHERAstar multi-function microplate reader.

Assay [4] deals with adenosine A2b receptor (A2bR) (Homo sapiens (Human), UniProt P29275). Nature of the assay: Inhibition of adenosine A2b receptor cAMP signaling pathway (HTRF cAMP, CHO-K1/A2bR cells). The conditions noted are these: Table 3; for IC50: CHO-K1/A2bR cells, ethyl carbazole 1 μM, cAMP HTRF; for IC50 ratio (A2bR/A2aR): selectivity A2bR over A2aR.
adenosine A2b receptor (A2bR), sequence (P29275 whole entry): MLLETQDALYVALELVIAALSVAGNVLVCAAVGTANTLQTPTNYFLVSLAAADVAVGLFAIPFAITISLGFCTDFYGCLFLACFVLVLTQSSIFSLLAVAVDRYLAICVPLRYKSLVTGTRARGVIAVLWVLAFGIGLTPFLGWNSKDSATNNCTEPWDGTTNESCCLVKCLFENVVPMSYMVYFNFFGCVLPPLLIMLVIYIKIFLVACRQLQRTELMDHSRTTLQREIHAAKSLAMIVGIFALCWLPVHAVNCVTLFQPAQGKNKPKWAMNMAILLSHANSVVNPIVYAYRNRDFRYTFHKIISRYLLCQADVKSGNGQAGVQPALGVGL
From the text: as §1, §2
2.4 Adenosine A2b receptor (A2bR)
CHO-K1/A2bR cells were cultured in DMEM/F12 medium containing 10% fetal bovine serum and 1 mg/ml G418. The cells were digested with the cell separation buffer during the experiment. The cells were resuspended in the balanced salt buffer containing 20 mM HEPES and 0.1% bovine serum albumin and counted, and the cell density was adjusted to 10^6 cells/ml. In the 384-well plate, each well was added with 5 μl of cell suspension, and 2.5 μl of test compound (4× concentration) formulated with the balanced salt buffer containing 20 mM HEPES, 0.1% bovine serum albumin, 54 μM rolipram and 2.7 U/ml adenosine deaminase, and the plate was incubated at room temperature for 30 minutes. Each well was then added with 2.5 μl of […] (4× concentration) (Torcis, 1691/10) formulated with the balanced salt buffer containing 20 mM HEPES, 0.1% bovine serum albumin, 54 μM rolipram and 2.7 U/ml adenosine deaminase, and the plate was incubated at room temperature for 30 minutes. The final concentrations of the compounds were: 100000, 10000, 1000, 100, 10, 1, 0.1 and 0 nM. The final concentration of […] was 1 μM. Intracellular cAMP concentration was detected with the cAMP dynamic 2 kit. cAMP-d2 and Anti-cAMP-Eu-Cryptate were diluted respectively with the cAMP lysis buffer at a ratio of 1:4. Each well was added with 5 μl of diluted cAMP-d2, followed by addition of 5 μl of diluted Anti-cAMP-Eu-Cryptate, and the plate was incubated at room temperature in the dark for 1 hour. The HTRF signal values were read by the PHERAstar multi-function microplate reader.

adenosine A1 receptor (A1R), sequence (P30542 whole entry): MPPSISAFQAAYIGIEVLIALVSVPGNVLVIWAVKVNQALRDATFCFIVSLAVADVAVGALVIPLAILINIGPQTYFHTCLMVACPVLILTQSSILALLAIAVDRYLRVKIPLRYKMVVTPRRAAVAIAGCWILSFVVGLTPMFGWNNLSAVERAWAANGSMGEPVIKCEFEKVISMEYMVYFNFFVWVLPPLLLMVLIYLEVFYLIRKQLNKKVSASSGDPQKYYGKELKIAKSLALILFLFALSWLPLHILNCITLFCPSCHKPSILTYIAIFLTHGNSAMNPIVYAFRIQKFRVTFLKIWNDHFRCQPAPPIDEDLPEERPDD
adenosine A3 receptor (A3R), sequence (P0DMS8 whole entry): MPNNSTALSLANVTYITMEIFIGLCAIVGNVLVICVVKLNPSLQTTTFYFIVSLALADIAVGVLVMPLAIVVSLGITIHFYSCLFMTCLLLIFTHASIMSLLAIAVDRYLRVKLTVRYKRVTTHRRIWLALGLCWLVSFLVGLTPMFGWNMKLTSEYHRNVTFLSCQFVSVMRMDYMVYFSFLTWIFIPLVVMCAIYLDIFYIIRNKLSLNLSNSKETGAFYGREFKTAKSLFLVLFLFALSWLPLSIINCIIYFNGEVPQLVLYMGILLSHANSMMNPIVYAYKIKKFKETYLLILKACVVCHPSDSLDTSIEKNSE

Take `Nc1nc(-c2ccccc2)c(-c2ccc3ncccc3c2)c2nncn12` [Example 3, 7-Phenyl-8-(quinolin-6-yl)-[1,2,4]triazolo[4,3-c]pyrimidin-5-amine]: in assay [1], the “IC50 ratio (A3R/A2aR)” value is 2.9 × 10^4. Moreover, the 50% inhibitory concentration (IC50) in assay [1] amounted to 2000 nM; in assay [2] it was 18 nM; in assay [3] (Table 1, ethyl carbazole 20 nM), 0.07 nM; in assay [3] (Table 2, ethyl carbazole 20 nM), 0.07 nM. Moreover, the “IC50 ratio (A1R/A2aR)” value in assay [2] amounted to 257.
For the compound `Cc1cc(-c2c(-c3ccccc3)nc(N)n3cnnc23)cc2cccnc12` [Example 5, 8-(8-Methylquinolin-6-yl)-7-phenyl-[1,2,4]triazolo[4,3-c]pyrimidin-5-amine], the “IC50 ratio (A3R/A2aR)” value in assay [1] is 1.5 × 10^4. The IC50 in assay [1] is 1400 nM; in assay [2], 12 nM; in assay [3] (Table 1, ethyl carbazole 20 nM) it was 0.09 nM; in assay [3] (Table 2, ethyl carbazole 20 nM), 0.09 nM. For the same compound, the “IC50 ratio (A1R/A2aR)” value in assay [2] is given as 133.
As to `Nc1nc(-c2ccccc2)c(-c2cc(F)c3ncccc3c2)c2nncn12` [Example 7, 8-(8-Fluoroquinolin-6-yl)-7-phenyl-[1,2,4]triazolo[4,3-c]pyrimidin-5-amine], the “IC50 ratio (A3R/A2aR)” value in assay [1] is reported as 3.1 × 10^4. Besides, the IC50 in assay [1] was 5000 nM; in assay [2] it was 16 nM; in assay [3] (Table 1, ethyl carbazole 20 nM), 0.16 nM; in assay [3] (Table 2, ethyl carbazole 20 nM) it was 0.16 nM. Further, the “IC50 ratio (A1R/A2aR)” value in assay [2] came to 100.
Consider `Cc1cc(-c2c(-c3ccccc3)nc(N)n3cnnc23)cc(C)n1` [Example 11, 8-(2,6-Dimethylpyridin-4-yl)-7-phenyl-[1,2,4]triazolo[4,3-c]pyrimidin-5-amine], for which the “IC50 ratio (A3R/A2aR)” value in assay [1] is given as >6.7 × 10^4. In addition, the IC50 in assay [1] is over 10000 nM; in assay [2], 102 nM; in assay [3] (Table 1, ethyl carbazole 20 nM), 0.15 nM; in assay [3] (Table 2, ethyl carbazole 20 nM), 0.15 nM. The “IC50 ratio (A1R/A2aR)” value in assay [2] came out at 680.
`Cc1cc(-c2c(-c3ccccc3F)nc(N)n3cnnc23)cc(Cl)n1` [Example 27, 8-(2-Chloro-6-methylpyridin-4-yl)-7-(2-fluorophenyl)-[1,2,4]triazolo[4,3-c]pyrimidin-5-amine]: the “IC50 ratio (A3R/A2aR)” value in assay [1] is reported as >2 × 10^4. In addition, the IC50 in assay [1] was over 10000 nM; in assay [2], 71 nM; in assay [3] (Table 1, ethyl carbazole 20 nM), 0.5 nM; in assay [3] (Table 2, ethyl carbazole 20 nM), 0.5 nM. For the same compound, the “IC50 ratio (A1R/A2aR)” value in assay [2] came to 142.
As to `Cc1cc(-c2c(-c3cccc(F)c3)nc(N)n3cnnc23)cc(C(F)(F)F)n1` [Example 29, 7-(3-Fluorophenyl)-8-(2-methyl-6-(trifluoromethyl)pyridin-4-yl)-[1,2,4]triazolo[4,3-c]pyrimidin-5-amine], the IC50 turned out to be 86.3 nM in assay [4]; 0.55 nM in assay [3] (Table 1, ethyl carbazole 20 nM); 0.55 nM in assay [3] (Table 3, ethyl carbazole 20 nM). Besides, the “IC50 ratio (A2bR/A2aR)” value in assay [4] is recorded as 157.
As to `Cc1cc(-c2c(-c3ccccc3)nc(N)n3cnnc23)cc(C2CC2)n1` [Example 30, 8-(2-Cyclopropyl-6-methylpyridin-4-yl)-7-phenyl-[1,2,4]triazolo[4,3-c]pyrimidin-5-amine], the half-maximal inhibitory concentration (IC50) amounted to 70.9 nM in assay [4]; 0.77 nM in assay [3] (Table 1, ethyl carbazole 20 nM); 0.77 nM in assay [3] (Table 3, ethyl carbazole 20 nM). In assay [4], the “IC50 ratio (A2bR/A2aR)” value stood at 92.
As to `Cc1cc(-c2c(-c3ccccc3F)nc(N)n3cnnc23)cc(C(F)(F)F)n1` [Example 33, 7-(2-Fluorophenyl)-8-(2-methyl-6-(trifluoromethyl)pyridin-4-yl)-[1,2,4]triazolo[4,3-c]pyrimidin-5-amine], the IC50 came to 134 nM in assay [4]; 1.77 nM in assay [3] (Table 1, ethyl carbazole 20 nM); 1.77 nM in assay [3] (Table 3, ethyl carbazole 20 nM). The “IC50 ratio (A2bR/A2aR)” value in assay [4] amounted to 76.
Take `Cc1cc(-c2c(-c3ccc(F)cc3F)nc(N)n3cnnc23)cc(Cl)n1` [Example 34, 8-(2-Chloro-6-methylpyridin-4-yl)-7-(2,4-difluorophenyl)-[1,2,4]triazolo[4,3-c]pyrimidin-5-amine]: the IC50 in assay [4] was found to be 170 nM; in assay [3] (Table 1, ethyl carbazole 20 nM) it was 2.04 nM; in assay [3] (Table 3, ethyl carbazole 20 nM), 2.04 nM. In addition, in assay [4], the “IC50 ratio (A2bR/A2aR)” value is recorded as 83.
For `Cc1cc(-c2c(-c3ccc(Cl)cc3F)nc(N)n3cnnc23)cc(Cl)n1` [Example 50, 7-(4-Chloro-2-fluorophenyl)-8-(2-chloro-6-methylpyridin-4-yl)-[1,2,4]triazolo[4,3-c]pyrimidin-5-amine], the concentration for half-maximal inhibition (IC50) in assay [4] is 255 nM; in assay [3] (Table 1, ethyl carbazole 20 nM) it was 3.55 nM; in assay [3] (Table 3, ethyl carbazole 20 nM), 3.55 nM. For the same compound, the “IC50 ratio (A2bR/A2aR)” value in assay [4] was determined as 72.

A word on the IC50: it is the point on the concentration scale where inhibition reaches its midpoint. A lower IC50 goes with higher potency.
